# Results reported in US20160199499A1, “USES OF PH[…] SYNTHETIC TLR7 AGONISTS” (priority 2013, published 2016).
# Where “and” joins values, the source holds several entries; their conditions need not be identical. Equal values may be shown once.
# What was measured:
# lung parenchyma = test: Lung histology (H&E) after i.t. administration; details: 1 nmol i.t., 6 and 24 h post treatment
# [1] = system: neutrophils in BAL fluids; test: BAL cell counts (Guava cytometer, Wright-Giemsa differential) after i.t. administration; assay type: in vivo, C57BL/6 mice
# [2] = system: Vaccinia virus (IHD strain); design: species or system BALB/c mice; details: mouse, in vivo
# [3] = system: cytokines and chemokines in BAL fluids and sera; test: Luminex bead assay of cytokines and chemokines in BAL fluids and sera after pulmonary administration
# [4] = system: Venezuelan equine encephalitis virus (Trinidad Donkey, NR-332); design: species or system BALB/c mice; details: mouse, in vivo, sc
# B220+ B cells = test: B cell numbers in lymph nodes after pulmonary administration (flow cytometry); details: 1 nmol, 7 days post treatment
# Particle size in PBS = assay type: physicochemical
# [5] = system: influenza A/California/04/2009 (H1N1) virus; design: species or system BALB/c mice; details: mouse, in vivo
# CD11c+ dendritic cells = test: In vivo CFSE labeling of dendritic cells, migration to mediastinal lymph nodes (flow cytometry); design: species or system C57BL/6 mice; details: 1 nmol i.t., 24 h after drug administration
# [6] = Body weight monitoring / maximum tolerated dose after pulmonary administration
# West Nile Virus (WNV) = test: West Nile virus s.c. infection model; assay type: in vivo, C57BL/6 mice
# [7] = 1 nmol i.t., 6 h post-treatment, vs vehicle
# [8] = 24 h after pulmonary (i.n.) administration, up to a 4 nmol dose
smiles,measurement,setting,value
"CCCCCCCC/C=C\CCCCCCCC(=O)OCC(COP(=O)(O)OCCNC(=O)c1ccc(Cn2c(=O)[nH]c3c(N)nc(OCCOC)nc32)cc1)OC(=O)CCCCCCC/C=C\CCCCCCCC (stereo not shown) [1V270, 2-(4-{[6-Amino-2-(2-methoxyethoxy)-8-oxo-7H-purin-9(8H)-yl]methyl}benzamido)ethyl 2,3-Bis(oleoyloxy)propyl Phosphate]",inflammatory cell infiltration into the lung parenchyma,lung parenchyma,did not show inflammatory cell infiltration into the lung parenchyma
same,cell infiltration and neutrophil recruitment to BAL fluids in MyD88 or TLR7 null mice,"[1]; 1 nmol i.t., 24 h, Myd88-/- or Tlr7-/- mice",diminished
same,mononuclear cells in BAL fluids,"[1]; 1 nmol i.t., 24 h after treatment, also elevated in vehicle-treated mice",slightly elevated
same,neutrophil population in BAL fluids,"[1]; 1 nmol i.t., 24 h and 48 h after treatment",significant increase
same,total cell numbers in the BAL fluids,"[1]; 1 nmol i.t., monitored for 72 h",increased over 48 h and declined to near baseline levels 72 h post pulmonary administration
same,neutrophil influx dose response,"[1]; 24 h post treatment, i.t.",dose responsive between 0.1 to 10 nmol
same,Mean Day of Death ± SD,[2],7.2 ± 0.6 days and 8.4 ± 0.5 days and 9.0 days and 8.0 days and 7.3 ± 0.8 days
same,Survivors/Total,[2],0/10 and 10/10*** and 5/10** and 9/10*** and 8/10*** and 3/10*
same,body weights during the infection,[2],increased over the first three days before declining
same,mice protected from death,[2],90-100%
same,"preserving body weight, rank among treatments",[2],best effect in preserving body weight
same,IL-6 in BAL fluids,[3]; [7],significantly increased
same,KC in BAL fluids,[3]; [7],significantly increased
same,MCP-1 in BAL fluids,[3]; [7],significantly increased
same,IP-10 induction in BAL fluids (surrogate marker of type 1 IFN),"[3]; 1 nmol i.t., monitored up to 72 h",peaked at 24 h and declined to baseline levels 72 h post treatment
same,IL-6 in sera,[3]; [8],minimal insignificant increase
same,TNFα in sera,[3]; [8],minimal insignificant increase
same,mice protected from encephalitis,[4],Eighty
same,"B cell number in the cervical, mesenteric and inguinal nodes",B220+ B cells,did not significantly increase
same,B cell number in the draining mediastinal lymph nodes,B220+ B cells,did not significantly increase
same,particle size,Particle size in PBS; dispersed in 50 μL PBS,100-150 nm
same,"particle size, average","Particle size in PBS; in PBS, regardless of concentration",about 110 nm
same,mice protected from lethal H1N1 pulmonary influenza infection,[5],100%
same,CD11c+ DC migration to the mediastinal lymph nodes,CD11c+ dendritic cells,enhanced
same,weight loss in TLR7 null mice,"[6]; 75 nmol i.t., Tlr7-/- mice",did not lose weight
same,MTD relative to the effective dose,[6]; MTD 75 nmol/animal vs effective dose 1 nmol,75 times
same,weight loss compared to vehicle treated mice,"[6]; effective dose (1 nmoles), i.t.",did not cause significant weight loss
same,effective dose,"[6]; pulmonary route, mice",1 nmol
same,maximum tolerated dose (MTD),"[6]; pulmonary route, mice",75 nmol/animal
same,survival compared to placebo-treated mice,"West Nile Virus (WNV); 1 nmol/mouse i.n. at days -3 and -1, WNV s.c. day 0",not significant
same,survival compared to placebo-treated mice,"West Nile Virus (WNV); 1 nmol/mouse i.n. on day -1, WNV s.c. day 0 (P≦0.05)",statistically improved
"Nc1ccn(C[C@@H](CO)OCP(=O)(O)O)c(=O)n1 [Cidofovir, reference compound]",Survivors/Total,[2],10/10
same,effects on body weight,[2],superior to treatments with 1V270 that were started on the same day
same,mice protected from death,[2],100%
